Structures can show the parent of a compound that is named as a salt.
Experiments:
[1] = tested on: intraocular pressure; assay: Intraocular pressure reducing action (Test Example 4); assay type: in vivo, Japanese white rabbit; settings: for intraocular pressure reducing activity: result in words, rabbit; for inhibition in vivo at 1 %, 50 µL: Oryctolagus cuniculus, topical, 1% aqueous solution, 50 μl dropped to the left eye, after 2 hours, read-out: Intraocular pressure reducing action (reduction ratio) (%)
Protocol: A Japanese white rabbit having a body weight of about 2 kg was placed in a positioner and naturalized for one week before the experiment. An ophthalmologic local anesthesant (Benoxil) was administered to the left eye, and then intraocular pressure was measured by using a tonometer (Classic 30, Solan). The initial value of the intraocular pressure was measured, then 50 μl of a test compound (1% aqueous solution) was dropped to the left eye, and after 2 hours, the intraocular pressure was measured. The intraocular pressure reducing action of the test compounds is shown in Table 7 mentioned below as ratios (%) of reduction of intraocular pressure based on the initial value of the intraocular pressure.

[2] = tested on: thoracic aorta constricted with phenylephrine; assay: Vasoconstriction inhibitory action (Test Example 2); design: species or system Rats (Wistar); settings: result in words; rat thoracic aorta, phenylephrine
Source text: Rats (Wistar, 11-week old) were bleeded to death and laparotomized to take out the thoracic aorta. That aorta was cut into a ring of a length of about 3 mm in a conventional manner (Asano, T., et al., J. Pharmacol. Exp. Ther., 241, pp. 1033–1040 (1987)) and hung in 10-ml organ bath filled with Krebs-Hensright nutrient solution bubbled with a mixed gas of 95% O2 and 5% CO2. One end of the blood vessel was connected to an isometric transducer (FD Pickup TB-912T, Nihon Kohden) and applied with 2.5 g of resting tension, and constriction and relaxation reactions of the aorta were recorded. The aorta was constricted with phenylephrine (1 μM, Sigma) and then added with a test compound (1 μM), and the vasoconstriction inhibitory action thereof was observed. The vasoconstriction inhibitory actions of the test compounds are shown in Table 6 mentioned below as the relaxation ratios, which are based on the vasoconstriction with phenylephrine immediately before the addition of the test compound taken as 100%.

[3] = target: T1, myosin light chain phosphorylation enzyme (MLCK) (Gallus gallus, UniProt P11799); assay: Action on myosin light chain phosphorylation enzyme (MLCK) activity; assay type: biochemical, chicken; settings: for IC50: MLCK from chicken gizzard smooth muscle, ELISA, 100 μM ATP, read-out: Myosin light chain phosphorylation enzyme inhibitory action IC50; for inhibition of MLCK: result in words
T1 construct: purified from chicken gizzard smooth muscle by a conventional method; from tissue; host or cells: chicken gizzard smooth muscle
Protocol: A myosin light chain phosphorylation enzyme (MLCK) was purified from chicken gizzard smooth muscle by a conventional method (Yoshida, M., et al., J. Biochem., 99, 1027–1036 (1986)). The myosin regulatory light chain as a substrate was purified from the chicken gizzard smooth muscle by a conventional method (Grand, R. J., et al., Biochem. J., 211, 267–272 (1983)). The MLCK activity was measured by ELISA using pLC1 described in Test Example 1 (Sakurada, K., et al., J. Biochem., 115, 18–21 (1994)). The myosin regulatory light chain was diluted in phosphate-buffered saline (PBS, Sigma) to a concentration of 5.0 µg/ml, added to 96-well Immunoplate (Nunc) in a volume of 100 μl per well and left stand overnight at 4° C. Each well was washed with PBS, and 25 mM Tris/HCl buffer containing 100 μM ATP, 3 mM MgCl2, 1 mM CaCl2, 100 ng/ml of calmodulin (Sigma) and 100 ng/ml of MLCK (pH 7.4, Buffer A) was added to each well and incubated at 30° C. for 10 minutes. In a volume of 100 μl each of 20% aqueous phosphoric acid solution was added to each well to terminate the enzymatic reaction. Each well was washed with 25 mM Tris/HCl buffer (TTBS) containing 0.1% Tween 20, and then 100 μl each of pLC1 described in Test Example 1 was added to each well and incubated at room temperature for 90 minutes.
Each well was washed with TTBS, and then 100 μl of the HRP-labeled rabbit anti-mouse IgG antibodies (Bio-Rad) were added to each well and incubated at room temperature for 90 minutes. Each well was washed with TTBS, and then 25 mM citrate buffer (pH 5.0) containing orthophenylenediamine (Sigma) as a substrate of HRP and aqueous hydrogen peroxide (0.03%) was added in a volume of 100 μl per well and incubated at room temperature for 5 minutes. 50 μl of 4 N sulfuric acid was added to each well to terminate the reaction, and then absorbance was measured by using an immunoplate reader (Bio-Rad).

Row | inhibition of MLCK [3] | SMILES | intraocular pressure reducing activity [1] | vasoconstriction inhibitory action [2] | also measured
1 |  | CCc1cncc2cccc(NC3CCNCC3)c12.Cl [Example 113, 4-(4-Ethyl-5-isoquinolyl)aminopiperidine hydrochloride] | significant intraocular pressure reducing activity | significant vasoconstriction inhibitory action | 
2 |  | Cl.NCCCN(CCS(=O)(=O)c1ccccc1)S(=O)(=O)c1cccc2c(O)nccc12 [Example 13, N-[(1-Hydroxy-5-isoquinolyl)sulfonyl]-N-[2-(phenylsulfonyl)ethyl]-1,3-propylenediamine hydrochloride] |  | significant vasoconstriction inhibitory action | 
3 |  | CSc1cncc2cccc(NC3CCNCC3)c12.Cl [Example 105, 4-(4-Methylthio-5-isoquinolyl)aminopiperidine hydrochloride] |  | significant vasoconstriction inhibitory action | inhibition in vivo at 1 %, 50 µL [1]: 18.8%
4 |  | NCCN(CCS(=O)(=O)c1ccccc1)S(=O)(=O)c1cccc2cnccc12 [Example 7, N-[(5-Isoquinolyl)sulfonyl]-N-[2-(phenylsulfonyl)ethyl]ethylenediamine hydrochloride] |  |  | IC50 [3]: > 50 µM; inhibition in vivo at 1 %, 50 µL [1]: 30.1%
5 | did not inhibit MLCK | Cl.Nc1nccc2c(O[C@H]3CC[C@@H](N)CC3)cccc12 [Example 141, Cis-4-[(1-amino-5-isoquinolyl)oxy]cyclohexylamine hydrochloride] |  |  | 
6 |  | C=Cc1cncc2cccc(O[C@H]3CC[C@H](N)CC3)c12.Cl [Example 136, Trans-4-[(4-vinyl-5-isoquinolyl)oxy]cyclohexylamine hydrochloride] | significant intraocular pressure reducing activity | significant vasoconstriction inhibitory action | 
7 |  | Cl.NC1CCC(Nc2cccc3cncc(Br)c23)CC1 (stereo not drawn) [Example 107, N-(4-Bromo-5-isoquinolyl)-1,4-cyclohexanediamine hydrochloride] | significant intraocular pressure reducing activity |  | 
8 |  | Cl.N[C@H]1CC[C@H](Oc2cccc3cnccc23)CC1 [Example 135, Trans-4-[(5-isoquinolyl)oxy]cyclohexylamine hydrochloride] | significant intraocular pressure reducing activity |  | 
9 |  | Cl.OCCCN1CCC(Nc2cccc3cnccc23)CC1 [Example 145, 1-(3-Hydroxypropyl)-4-(5-isoquinolyl)aminopiperidine hydrochloride] | significant intraocular pressure reducing activity |  | 
10 |  | Cl.Oc1nccc2c(NC3CCNCC3)cccc12 [Example 115, 4-(1-Hydroxy-5-isoquinolyl)aminopiperidine hydrochloride] | significant intraocular pressure reducing activity |  | 
11 |  | Cl.NCCCN(CCCc1ccccc1)S(=O)(=O)c1cccc2c(N)nccc12 [Example 8, N-[(1-Amino-5-isoquinolyl)sulfonyl]-N-(3-phenylpropyl)-1,3-propylenediamine hydrochloride] |  | significant vasoconstriction inhibitory action | IC50 [3]: > 50 µM
12 |  | Cl.N#Cc1cncc2cccc(O[C@H]3CC[C@H](N)CC3)c12 [Example 134, Trans-4-[(4-cyano-5-isoquinolyl)oxy]cyclohexylamine hydrochloride] | significant intraocular pressure reducing activity | significant vasoconstriction inhibitory action | 
13 |  | NCCCOc1cccc2c(N)nccc12 [Example 10, 3-[(1-Amino-5-isoquinolyl)oxy]propylamine hydrochloride] |  |  | IC50 [3]: > 30 µM
14 | did not inhibit MLCK | Cl.Fc1cncc2cccc(NC3CCNCC3)c12 [Example 104, 4-(4-Fluoro-5-isoquinolyl)aminopiperidine hydrochloride] |  |  | inhibition in vivo at 1 %, 50 µL [1]: 18.8%
15 |  | NCCCN(CCCc1ccccc1)S(=O)(=O)c1cccc2cnccc12 [Example 1, N-[(5-Isoquinolyl)sulfonyl]-N-(3-phenylpropyl)-1,3-propylenediamine hydrochloride] |  |  | IC50 [3]: > 50 µM
16 |  | Cc1cncc2cccc(S(=O)(=O)N(CCCN)CCCc3ccccc3)c12.Cl [Example 5, N-[(4-Methyl-5-isoquinolyl)sulfonyl]-N-(3-phenylpropyl)-1,3-propylenediamine hydrochloride] |  | significant vasoconstriction inhibitory action | 
17 | did not inhibit MLCK | Cc1cncc2cccc(N[C@H]3CC[C@@H](N)CC3)c12.Cl [Example 120, Cis-N-(4-methyl-5-isoquinolyl)-1,4-cyclohexanediamine hydrochloride] | significant intraocular pressure reducing activity | significant vasoconstriction inhibitory action | 
18 | did not inhibit MLCK | C=Cc1cncc2cccc(NC3CCNCC3)c12.Cl [Example 112, 4-(4-Vinyl-5-isoquinolyl)aminopiperidine hydrochloride] |  | significant vasoconstriction inhibitory action | inhibition in vivo at 1 %, 50 µL [1]: 25%
19 | did not inhibit MLCK | Cl.NCCCN(CCCc1cccc(C(=O)O)c1)S(=O)(=O)c1cccc2cnccc12 [Example 128, N-[(5-Isoquinolyl)sulfonyl]-N-[3-(3-carboxy)phenylpropyl]-1,3-propylenediamine hydrochloride] |  |  | 
20 |  | Cc1cncc2cccc(OC3CCNCC3)c12.Cl [Example 139, 4-[(4-Methyl-5-isoquinolyl)oxy]piperidine hydrochloride] | significant intraocular pressure reducing activity | significant vasoconstriction inhibitory action | 
21 | did not inhibit MLCK | COC(=O)c1ccc(CCCN(CCCN)S(=O)(=O)c2cccc3cnccc23)cc1.Cl [Example 130, N-[(5-Isoquinolyl)sulfonyl]-N-[3-(4-methoxycarbonyl)phenylpropyl]-1,3-propylenediamine hydrochloride] |  |  | 
22 |  | N[C@H]1CC[C@H](Nc2cccc3cnccc23)CC1 [Example 24, Trans-N-(5-isoquinolyl)-1,4-cyclohexanediamine hydrochloride] |  |  | inhibition in vivo at 1 %, 50 µL [1]: 35.7%
23 | did not inhibit MLCK | Cl.c1cc(OC2CCNCC2)c2ccncc2c1 [Example 27, 4-[(5-Isoquinolyl)oxy]piperidine hydrochloride] |  |  | inhibition in vivo at 1 %, 50 µL [1]: 12.5%

Source: US7094789B2, “5-substituted isoquinoline derivatives” (Asahi Kasei Pharma Corporation, priority 2002, dated 2006)
